Experimental data: patent US10150771B2, “Triazolopyrazinones as PDE1 inhibitors” (H. Lundbeck A/S, priority 2014, dated 2018)

Key:
Type in all cases: biochemical
PDE1B = PDE1B (Homo sapiens, UniProt Q01064); assay: PDE1 inhibition assay (SPA), PDE1B; conditions: for IC50: concentration required to reach 50% inhibition of the enzyme, 15 nM tritium labelled cAMP, read-out: PDE1B inhibition (nM or %): IC50; for inhibition at 10 µM: 1 h, % inhibition of the enzyme at a concentration of 10 micro molar of the compound, read-out: PDE1B inhibition (nM or %): % inhib
Protocol: (§1) PDE1 Inhibition Assay PDE1A, PDE1B and PDE1C assays were performed as follows: the assays were performed in 60 μL samples containing a fixed amount of the PDE1 enzym1 (sufficient to convert 20-25% of the cyclic nucleotide substrate), a buffer (50 mM HEPES pH 7.6; 10 mM MgCl2; 0.02% Tween20), 0.1 mg/ml BSA, 15 nM tritium labelled cAMP and varying amounts of inhibitors. Reactions were initiated by addition of the cyclic nucleotide substrate, and reactions were allowed to proceed for 1 h at room temperature before being terminated through mixing with 20 μL (0.2 mg) yttrium silicate SPA beads (PerkinElmer). The beads were allowed to settle for 1 h in the dark before the plates were counted in a Wallac 1450 Microbeta counter. The measured signals were converted to activity relative to an uninhibited control (100%) and IC50 values were calculated using XIFit (model 205, IDBS).

PDE1C = PDE1C (Homo sapiens, UniProt Q14123); assay: PDE1 inhibition assay (SPA), PDE1C; conditions: concentration required to reach 50% inhibition of the enzyme; 15 nM tritium labelled cAMP; read-out: PDE1C inhibition (nM or %): IC50
Protocol: as §1

PDE1A = PDE1A (Homo sapiens, UniProt P54750); assay: PDE1 inhibition assay (SPA), PDE1A; conditions: for IC50: concentration required to reach 50% inhibition of the enzyme, 15 nM tritium labelled cAMP, read-out: PDE1A inhibition (nM or %): IC50
Protocol: as §1

Sequence of PDE1C (Q14123 whole entry): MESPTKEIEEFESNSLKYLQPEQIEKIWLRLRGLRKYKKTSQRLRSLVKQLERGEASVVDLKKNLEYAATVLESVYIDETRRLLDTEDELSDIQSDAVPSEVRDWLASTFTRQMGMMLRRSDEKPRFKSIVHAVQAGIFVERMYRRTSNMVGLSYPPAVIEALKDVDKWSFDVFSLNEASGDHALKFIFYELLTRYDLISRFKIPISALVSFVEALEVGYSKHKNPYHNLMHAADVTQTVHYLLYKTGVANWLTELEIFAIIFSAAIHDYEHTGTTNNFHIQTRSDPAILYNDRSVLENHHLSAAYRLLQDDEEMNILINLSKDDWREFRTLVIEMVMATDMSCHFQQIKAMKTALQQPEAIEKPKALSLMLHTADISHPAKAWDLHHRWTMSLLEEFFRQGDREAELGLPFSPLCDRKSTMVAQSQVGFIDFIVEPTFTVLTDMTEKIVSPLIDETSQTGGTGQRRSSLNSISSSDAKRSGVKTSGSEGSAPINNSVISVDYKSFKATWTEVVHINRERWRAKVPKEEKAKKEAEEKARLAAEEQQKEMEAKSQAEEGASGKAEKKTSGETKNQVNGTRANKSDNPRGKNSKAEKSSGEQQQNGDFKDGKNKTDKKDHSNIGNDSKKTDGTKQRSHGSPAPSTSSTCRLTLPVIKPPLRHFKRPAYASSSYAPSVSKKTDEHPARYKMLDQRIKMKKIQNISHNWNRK
Sequence of PDE1A (P54750 whole entry): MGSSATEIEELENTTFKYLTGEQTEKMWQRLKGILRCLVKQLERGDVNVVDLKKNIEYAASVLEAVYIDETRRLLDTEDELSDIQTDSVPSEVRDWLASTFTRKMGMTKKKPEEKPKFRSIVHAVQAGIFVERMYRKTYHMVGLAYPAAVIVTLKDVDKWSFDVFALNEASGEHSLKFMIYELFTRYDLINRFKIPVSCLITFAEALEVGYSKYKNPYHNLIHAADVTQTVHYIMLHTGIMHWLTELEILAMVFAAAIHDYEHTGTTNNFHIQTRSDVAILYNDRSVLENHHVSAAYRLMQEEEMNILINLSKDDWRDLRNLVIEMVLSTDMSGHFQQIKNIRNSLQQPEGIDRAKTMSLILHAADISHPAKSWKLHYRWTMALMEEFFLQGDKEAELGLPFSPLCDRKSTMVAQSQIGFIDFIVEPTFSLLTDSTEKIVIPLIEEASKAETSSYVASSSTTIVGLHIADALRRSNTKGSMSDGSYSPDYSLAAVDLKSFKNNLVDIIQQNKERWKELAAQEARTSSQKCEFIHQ
Sequence of PDE1B (Q01064 whole entry): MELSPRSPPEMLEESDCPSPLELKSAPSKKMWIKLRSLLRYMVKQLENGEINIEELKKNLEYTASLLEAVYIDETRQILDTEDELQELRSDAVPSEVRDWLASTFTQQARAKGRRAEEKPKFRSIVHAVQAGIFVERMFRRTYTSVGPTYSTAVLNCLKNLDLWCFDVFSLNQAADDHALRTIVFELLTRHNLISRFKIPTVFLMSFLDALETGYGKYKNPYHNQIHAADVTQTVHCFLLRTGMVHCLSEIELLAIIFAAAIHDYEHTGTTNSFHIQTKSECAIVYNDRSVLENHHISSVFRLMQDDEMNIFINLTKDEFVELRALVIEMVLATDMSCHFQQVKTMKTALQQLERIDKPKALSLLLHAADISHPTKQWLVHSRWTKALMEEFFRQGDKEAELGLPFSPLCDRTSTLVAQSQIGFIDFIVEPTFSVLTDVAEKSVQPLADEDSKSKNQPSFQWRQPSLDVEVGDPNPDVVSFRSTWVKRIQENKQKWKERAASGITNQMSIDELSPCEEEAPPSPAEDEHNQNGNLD

SMILES	IC50 (PDE1B)	IC50 (PDE1C)	IC50 (PDE1A)	inhibition at 10 µM (PDE1B)	PDE1A inhibition (nM or %): % inhib (PDE1A; % inhibition of the enzyme at a concentration of 10 micro molar of the compound)	inhibition at 10 µM (PDE1A; 1 h, % inhibition of the enzyme at a concentration of 10 micro molar of the compound, read-out: PDE1A inhibition (nM or %): % inhib)
Cc1ccccc1Cc1cn2c(C3CCOCC3)nnc2c(=O)n1CC1CCCCC1 [7-(cyclohexylmethyl)-6-(2-methylbenzyl)-3-(tetrahydro-2H-pyran-4-yl)-[1,2,4]triazolo[4,3-a]pyrazin-8(7H)-one]	44 nM	10 nM	41 nM			
COc1ccc(Cn2c(C)cn3c(C4CCOCC4)nnc3c2=O)cc1 [7-(4-methoxybenzyl)-6-methyl-3-(tetrahydro-2H-pyran-4-yl)-[1,2,4]triazolo[4,3-a]pyrazin-8(7H)-one]	34 nM	37 nM	54 nM			
O=c1c2nnc(CCF)n2ccn1Cc1cccc(F)c1 [7-(3-Fluorobenzyl)-3-(2-fluoroethyl)-[1,2,4]triazolo[4,3-a]pyrazin-8(7H)-one]	3000 nM	620 nM	2900 nM			
CCCc1nnc2c(=O)n(Cc3cccc(C)c3)ccn12 [7-(3-Methylbenzyl)-3-propyl-[1,2,4]triazolo[4,3-a]pyrazin-8(7H)-one]	1600 nM	170 nM	1500 nM			
O=c1c2nnc(C3CCCCC3)n2ccn1Cc1cccc(F)c1 [3-Cyclohexyl-7-(3-fluorobenzyl)-[1,2,4]triazolo[4,3-a]pyrazin-8(7H)-one]	590 nM	120 nM	810 nM			
O=c1c2nnc(C3CCOCC3)n2cc(Cc2ccc(F)cc2)n1CC1CCCC1 [7-(cyclopentylmethyl)-6-(4-fluorobenzyl)-3-(tetrahydro-2H-pyran-4-yl)-[1,2,4]triazolo[4,3-a]pyrazin-8(7H)-one]	140 nM	12 nM	142 nM			
CCCc1nnc2c(=O)n(CC3CCC(C)CC3)ccn12 (single isomer, unassigned) [7-(((1s,4s)-4-methylcyclohexyl)methyl)-3-propyl-[1,2,4]triazolo[4,3-a]pyrazin-8(7H)-one]	24 nM	36 nM	111 nM			
CCCc1nnc2c(=O)n(CC3CC3)ccn12 [7-(Cyclopropylmethyl)-3-propyl-[1,2,4]triazolo[4,3-a]pyrazin-8(7H)-one]	2000 nM	1300 nM	3600 nM			
CCc1nnc2c(=O)n(Cc3ccc(Cl)cc3)ccn12 [7-(4-Chlorobenzyl)-3-ethyl-[1,2,4]triazolo[4,3-a]pyrazin-8(7H)-one]	800 nM	2400 nM	1000 nM			
CCCc1nnc2c(=O)n(CC3CCOC3)ccn12 (single isomer, unassigned) [3-Propyl-7-((tetrahydrofuran-3-yl)methyl)-[1,2,4]triazolo[4,3-a]pyrazin-8(7H)-one]	4000 nM			67%		
CCCc1nnc2c(=O)n(CC3C4CC5CC(C4)CC3C5)ccn12 (stereo not drawn) [7-(((1r,3r,5r,7r)-adamantan-2-yl)methyl)-3-propyl-[1,2,4]triazolo[4,3-a]pyrazin-8(7H)-one]	210 nM	63 nM	179 nM			
O=c1c2nnc(C3CCOCC3)n2cc(Cc2cccc(F)c2)n1CC1CCCCC1 [7-(cyclohexylmethyl)-6-(3-fluorobenzyl)-3-(tetrahydro-2H-pyran-4-yl)-[1,2,4]triazolo[4,3-a]pyrazin-8(7H)-one]	22 nM	6 nM	24 nM			
O=c1c2nnc([C@H]3CC[C@@H](O)CC3)n2ccn1Cc1cccc(F)c1 [7-(3-Fluorobenzyl)-3-((1s,4s)-4-hydroxycyclohexyl)-[1,2,4]triazolo[4,3-a]pyrazin-8(7H)-one]	1000 nM	350 nM	1800 nM			
CCCc1nnc2c(=O)n(Cc3cccc(F)c3)c(Br)cn12 [6-bromo-7-(3-fluorobenzyl)-3-propyl-[1,2,4]triazolo[4,3-a]pyrazin-8(7H)-one]	99 nM	20 nM	63 nM			
O=c1c2nnc(C3CCOCC3)n2ccn1CC1CCCCC1 [7-(Cyclohexylmethyl)-3-(tetrahydro-2H-pyran-4-yl)-[1,2,4]triazolo[4,3-a]pyrazin-8(7H)-one]	190 nM	87 nM	220 nM			
O=c1c2nnc(C3CCCOC3)n2ccn1Cc1cccc(F)c1 (single isomer, unassigned) [7-(3-Fluorobenzyl)-3-(tetrahydro-2H-pyran-3-yl)-[1,2,4]triaz] [7-(3-Fluorobenzyl)-3-(tetrahydro-2H-pyran-3-yl)-[1,2,4]triazolo[4,3-a]pyrazin-8(7H)-one]			1800 nM			

SMILES	IC50 (PDE1B)	IC50 (PDE1C)	IC50 (PDE1A)	inhibition at 10 µM (PDE1B)	PDE1A inhibition (nM or %): % inhib (PDE1A; % inhibition of the enzyme at a concentration of 10 micro molar of the compound)	inhibition at 10 µM (PDE1A; 1 h, % inhibition of the enzyme at a concentration of 10 micro molar of the compound, read-out: PDE1A inhibition (nM or %): % inhib)
CCCc1nnc2c(=O)n(Cc3cccc(F)c3)cc(CC)n12 [5-ethyl-7-(3-fluorobenzyl)-3-propyl-[1,2,4]triazolo[4,3-a]pyrazin-8(7H)-one]	510 nM	180 nM	858 nM			
CCCc1nnc2c(=O)n(CC3CCC4(CC3)CC4)ccn12 [3-propyl-7-(spiro[2.5]octan-6-ylmethyl)-[1,2,4]triazolo[4,3-a]pyrazin-8(7H)-one]	53 nM	92 nM	86 nM			
O=c1c2nnc(C3CCOCC3)n2cc(Cc2ccccc2)n1CC1CCCCC1 [6-benzyl-7-(cyclohexylmethyl)-3-(tetrahydro-2H-pyran-4-yl)-[1,2,4]triazolo[4,3-a]pyrazin-8(7H)-one]	11 nM	4 nM	11 nM			
Cc1ccc(Cc2cn3c(C4CCOCC4)nnc3c(=O)n2Cc2cccc(F)c2)cc1 [7-(3-fluorobenzyl)-6-(4-methylbenzyl)-3-(tetrahydro-2H-pyran-4-yl)-[1,2,4]triazolo[4,3-a]pyrazin-8(7H)-one]	6 nM	1 nM	7 nM			
O=c1c2nnc(C3CCOCC3)n2cc(Cc2ccccc2)n1Cc1ccc(F)cc1 [6-benzyl-7-(4-fluorobenzyl)-3-(tetrahydro-2H-pyran-4-yl)-[1,2,4]triazolo[4,3-a]pyrazin-8(7H)-one]	12 nM	6 nM	15 nM			
O=c1c2nnc(C3CCOCC3)n2ccn1CC1CCCC1 [7-(Cyclopentylmethyl)-3-(tetrahydro-2H-pyran-4-yl)-[1,2,4]triazolo[4,3-a]pyrazin-8(7H)-one]	990 nM	110 nM	1100 nM			
CCCc1nnc2c(=O)n(Cc3cccc(F)c3)cc([C@@H]3CCOC3)n12 (single isomer, unassigned)	1000 nM	260 nM	1780 nM			
O=c1c2nnc(C3CCOCC3)n2ccn1CC1CCCCCC1 [7-(Cycloheptylmethyl)-3-(tetrahydro-2H-pyran-4-yl)-[1,2,4]triazolo[4,3-a]pyrazin-8(7H)-one]	33 nM	42 nM	43 nM			
O=c1c2nnc(C3CCCOC3)n2ccn1Cc1cccc(F)c1 (single isomer, unassigned) [7-(3-Fluorobenzyl)-3-(tetrahydro-2H-pyran-3-yl)-[1,2,4]triazolo[4,3-a]pyrazin-8(7H)-one]			1800 nM			
O=c1c2nnc(C3CCCCO3)n2ccn1Cc1cccc(F)c1 (single isomer, unassigned) [7-(3-Fluorobenzyl)-3-(tetrahydro-2H-pyran-2-yl)-[1,2,4]triazolo[4,3-a]pyrazin-8(7H)-one]			3200 nM			
O=c1c2nnc(C3CCOC3)n2ccn1Cc1cccc(F)c1 (single isomer, unassigned) [7-(3-Fluorobenzyl)-3-(tetrahydrofuran-3-yl)-[1,2,4]triazolo[] [7-(3-Fluorobenzyl)-3-(tetrahydrofuran-3-yl)-[1,2,4]triazolo[4,3-a]pyrazin-8(7H)-one]		240 nM				
O=c1c2nnc(CC3CCCO3)n2ccn1Cc1cccc(F)c1 (single isomer, unassigned) [7-(3-Fluorobenzyl)-3-((tetrahydrofuran-2-yl)methyl)-[1,2,4]t] [7-(3-Fluorobenzyl)-3-((tetrahydrofuran-2-yl)methyl)-[1,2,4]triazolo[4,3-a]pyrazin-8(7H)-one]					49%	
O=c1c2nnc(C3CCOC3)n2ccn1Cc1cccc(F)c1 (single isomer, unassigned) [7-(3-Fluorobenzyl)-3-(tetrahydrofuran-3-yl)-[1,2,4]triazolo[4,3-a]pyrazin-8(7H)-one]		240 nM				
O=c1c2nnc(C3CCCCO3)n2ccn1Cc1cccc(F)c1 (single isomer, unassigned) [7-(3-Fluorobenzyl)-3-(tetrahydro-2H-pyran-2-yl)-[1,2,4]triaz] [7-(3-Fluorobenzyl)-3-(tetrahydro-2H-pyran-2-yl)-[1,2,4]triazolo[4,3-a]pyrazin-8(7H)-one]			3200 nM			
O=c1c2nnc(CC3CCCO3)n2ccn1Cc1cccc(F)c1 (single isomer, unassigned) [7-(3-Fluorobenzyl)-3-((tetrahydrofuran-2-yl)methyl)-[1,2,4]triazolo[4,3-a]pyrazin-8(7H)-one]	3700 nM			67%		67%
